In patent US7795305B2, “CDDO-compounds and combination therapies thereof” (Board of Regents, The University of Texas System, priority 2000, dated 2010):

Assays:
PPARα receptor = PPARα receptor (Homo sapiens, UniProt Q07869); assay: Transactivation of PPARα; type: cell-based
PPARγ LBD = target: T1, PPARγ LBD (Homo sapiens, UniProt P37231); assay: Scintillation proximity assay (SPA), competition binding; details: read-out: Ki, competition with [3H]-rosiglitazone for binding to PPARγ LBD
T1 construct: bacterially expressed PPARγ LBD; made in house
Source text: PPARγ, a member of a family of nuclear receptors, induces differentiation and growth arrest in preadipocyte cells and can mediate inflammatory processes.

[1] = test system: Bcl-2 in CD34+ cells of primary AML; assay: Bcl-2 expression level in CD34+ cells of primary AML samples; type: cell-based, human
U937 cells [2] = assay: Mitochondrial membrane potential; type: cell-based, human
Protocol: Cytofluorometric analysis of the Δψm. To evaluate the Δψm, cells were incubated with the cationic lipophilic dye […] (CMXRos; 150 nM; Molecular Probes, Inc., Eugene, Oreg.). CMXRos is incorporated into mitochondria driven by the […] and reacts with thiol residues to form covalent thiol ester bonds. CMXRos fluorescence was recorded by flow cytometry in the FL3 channel. Background values of the apoptosis of control cells cultured without the CDDO-Me or in DMSO-solvent control (<10% CMXRos-low) were subtracted from the values obtained under the experimental conditions.
An early mitochondrial disruption has been observed in a number of different models of apoptosis. Changes in the cellular content of the cationic lipophilic fluorochrome CMXRos were determined by FACS analysis to measure loss of the mitochondrial membrane potential (Δψ) (Macho et al., 1996). […] Similarly, exposure of HL-60 to CDDO-Me (1 μM) for 2 and 4 hrs increased the number of cells with low JC-1 (57 and 60%) or CMXRos staining (46 and 57%), both assays measuring the decrease in Δψ. CDDO-Me-induced changes in the mitochondrial membrane potential of the cells preceded caspase activation and changes in the composition of the plasma membrane. […]

U937 cells [3] = assay: Active caspase detection with Phi-Phi-Lux; type: cell-based, human; details: 1 μM, 6 hours
Protocol: Detection of active caspases. The cell-permeable fluorogenic substrate Phi-Phi-Lux-G1D2 was administered to monitor caspase activity according to the manufacturer's recommendations (OncoImmunin, Inc, Kensington, Md.). Briefly, 10^6 cells were resuspended in 5 μL of substrate solution and incubated for 1 hour at 37° C. in the dark. After incubation, cells were washed, and the fluorescence emission was determined using the FL-1 channel of a Becton Dickinson FACScan flow cytometer.
CDDO-Me. […] Effects of CDDO-Me on the cleavage of caspase-3 were analyzed utilizing the fluorogenic substrate of caspase-3 Phi-Phi-Lux.

HL-60 cells = assay: Annexin V staining; type: cell-based, human; details: 0.1 μM CDDO-Me alone or combined with 1 μM ATRA
Protocol: Annexin V staining. Cells were washed in phosphate-buffered saline (PBS) and resuspended in 100 μl of binding buffer containing Annexin V (Roche Diagnostic Corporation, Indianapolis, Ind.). Cells were analyzed by flow cytometry after the addition of propidium iodide (PI). Annexin V binds to those cells that express phosphatidylserine on the outer layer of the cell membrane, and PI stains the cellular DNA of those cells with a compromised cell membrane. This allows for live cells (unstained with either fluorochrome) to be discriminated from apoptotic cells (stained only with annexin V) and necrotic cells (stained with both annexin and PI).
CDDO-Me. CDDO-Me and retinoids synergistically decrease viability and induce differentiation in leukemic cell lines. The inventors tested the Effect of CDDO-Me/ATRA combinations in different leukemic cell lines. […] This was confirmed in HL-60 cells by annexin V staining (17.9 vs 30% positive cells when 0.1 μM of CDDO-Me was combined with 1 μM ATRA). In primary AML, ATRA enhanced CDDO-Me-induced apoptosis in 3/8 samples tested (an example of subG1 flow cytometry in AML sample shown in FIG. 32).

CML-blast crisis samples = assay: Apoptosis and differentiation in CML-blast crisis samples in vitro; type: cell-based, human
Source text: Subjects. Samples of bone marrow or peripheral blood were obtained for in vitro studies from patients with newly diagnosed or recurrent AML with high (>70%) blast count and from patients with myeloid transformation of chronic myeloid leukemia (CML). Informed consent was obtained following institutional guidelines. Mononuclear cells were separated by Ficoll-Hypaque (Sigma Chemical Co) density-gradient centrifugation.
CDDO-Me. In primary AML, CDDO-Me induced apoptotic cell death in a dose-dependent fashion as determined by DNA flow cytometry (subG1): at 1 μM CDDO-Me, apoptosis was induced in 5 of 6 AML samples in vitro, and 5 μM induced apoptosis in 6 of 6 samples. More than 90% apoptotic cells were detected in 4/6 samples following exposure to 5 μM of CDDO-Me (FIG. 21A). At lower concentrations, CDDO-Me induced a dose-dependent increase in the percentage of the apoptotic cells in 4/4 samples tested (FIG. 21B). The paired mean difference between the CDDO-Me 0.1 μM and DMSO control is 26.9%±10.8% (CDDO-Me-DMSO, mean±SEM); and the paired mean difference between the CDDO-Me 0.5 μM and DMSO is 43.2%±5.2%. […] Effects of CDDO-Me were also tested on clonogenic AML cells. […] In contrast, 79±5.6% and 63.4±1.1% CFU-GM generated from normal CD34* cells were detected after 0.1 and 0.5 μM of CDDO-Me treatment (n=3).

T1 sequence (P37231 238-503 limits assumed): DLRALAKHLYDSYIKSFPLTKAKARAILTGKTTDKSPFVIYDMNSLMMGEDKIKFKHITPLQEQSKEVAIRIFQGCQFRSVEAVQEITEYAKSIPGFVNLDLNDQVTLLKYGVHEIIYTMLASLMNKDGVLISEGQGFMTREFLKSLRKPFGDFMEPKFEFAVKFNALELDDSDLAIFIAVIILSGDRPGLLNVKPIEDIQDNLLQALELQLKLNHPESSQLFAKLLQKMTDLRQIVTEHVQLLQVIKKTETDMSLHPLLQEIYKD
Chain of PPARα receptor (Q07869 whole entry, the tested form may be a part): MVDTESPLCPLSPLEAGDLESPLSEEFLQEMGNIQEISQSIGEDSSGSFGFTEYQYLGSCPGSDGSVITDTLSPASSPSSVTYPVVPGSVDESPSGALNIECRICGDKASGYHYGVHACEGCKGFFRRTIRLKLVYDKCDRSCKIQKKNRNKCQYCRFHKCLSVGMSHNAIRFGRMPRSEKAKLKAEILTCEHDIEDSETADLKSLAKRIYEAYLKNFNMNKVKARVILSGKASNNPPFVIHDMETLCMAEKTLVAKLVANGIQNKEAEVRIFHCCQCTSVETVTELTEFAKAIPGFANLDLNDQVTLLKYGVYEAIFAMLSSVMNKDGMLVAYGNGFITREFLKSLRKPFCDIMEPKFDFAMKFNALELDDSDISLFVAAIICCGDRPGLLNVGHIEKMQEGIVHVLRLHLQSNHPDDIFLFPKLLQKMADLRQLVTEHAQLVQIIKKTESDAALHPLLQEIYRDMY

| Compound | transactivation of PPARα receptor (PPARα receptor) | Ki (PPARγ LBD) [nM] | primary AML samples with significantly decreased Bcl-2 expression level in CD34+ cells [1] | cells with decreased Δψ (U937 cells [2]; CDDO-Me alone) [%] | cells with decreased Δψ (U937 cells [2]; after DEVD pretreatment) [%] | Phi-Phi-Lux positive/PI negative cells (U937 cells [3]) [%] | annexin V positive cells (HL-60 cells) [%] | CML-blast crisis samples in which apoptosis was induced (CML-blast crisis samples; 1 μM) | CML-blast crisis samples in which apoptosis was induced (CML-blast crisis samples; 5 μM) |
| --- | --- | --- | --- | --- | --- | --- | --- | --- | --- |
| CC1(C)CCC2(C(=O)O)CCC3(C)C(C(=O)C=C4C5(C)C=C(C#N)C(=O)C(C)(C)C5CCC43C)C2C1 (stereo not drawn) [CDDO, 2-cyano-3,12-dioxoolen-1,9-dien-28-oic acid] | did not transactivate | 12 | 9 of 18 |  |  |  |  |  |  |
| COC(=O)[C@]12CCC(C)(C)C[C@H]1[C@H]1C(=O)C=C3[C@@]4(C)C=C(C#N)C(=O)C(C)(C)[C@@H]4CC[C@@]3(C)[C@]1(C)CC2 [CDDO-Me] |  |  |  | 40 | 4 | 67 | 17.9 | 3 of 4 | 4 of 4 |
